Measurements taken from patent US4861788A, “Antibacterial 1-normon-2-yl-heterocyclic compounds” (Beecham Group plc, priority 1983, dated 1989).
Converted amounts (≈) assume the structure as drawn.

Key:
M. hyopneumoniae MS 16 = experiment: MIC against Mycoplasma in vitro (Friis broth with agarose); type: cell-based; details: Mesomycoplasma hyopneumoniae, MS16, 144 h; M. hyopneumoniae MS 16; 6 days at 37° C; read-out: MIC
Strep. agalactiae SPA1 = experiment: MIC against veterinary bacteria in vitro (Diagnostic Sensitivity Test Agar); details: Streptococcus agalactiae, SPA1, 18 h
Method: (§2) The activity of the normonyl derivatives of the Examples against various veterinarily important bacteria, was assayed in vitro using two-fold serial dilutions in Diagnostic Sensitivity Test Agar inoculated with 10^4 organisms.

M. gallisepticum S6 = experiment: MIC against Mycoplasma in vitro (Friis broth with agarose); type: cell-based; details: Mycoplasmoides gallisepticum, 144 h; M. gallisepticum S6; 6 days at 37° C; read-out: MIC
Staph. aureus Oxford = experiment: MIC against human bacteria in vitro (nutrient agar, chocolated horse blood); type: cell-based; details: Staphylococcus aureus; human; Staph. aureus Oxford; 18 hours at 37° C; read-out: MIC
Method: (§1) The activity of the normonyl derivaties of the Examples against various bacteria which are important in diseases of humans, was assayed in vitro using serial dilutions in nurient agar with 5% chocolated horse blood.

Strep. spp. 64/848-C = experiment: as above; type: cell-based; details: human; Strep. spp. 64/848-C; 18 hours at 37° C; read-out: MIC
Method: as §1

Strep. agalactiae 2788-B = experiment: as above; type: cell-based; details: Streptococcus agalactiae; human; Strep. agalactiae 2788-B; 18 hours at 37° C; read-out: MIC
Method: as §1

E. coli NCTC 10418 = experiment: as above; type: cell-based; details: Escherichia coli, NCTC10418; human; E. coli NCTC 10418; 18 hours at 37° C; read-out: MIC
Method: as §1

Bacillus subtilis 6633 = experiment: as above; type: cell-based; details: human; Bacillus subtilis 6633; 18 hours at 37° C; read-out: MIC
Method: as §1

[1] = tested on: Corynebacterium xerosis 9755; experiment: as above; type: cell-based; details: human; Corynebacterium xerosis 9755; 18 hours at 37° C; read-out: MIC
Method: as §1

K. aerogenes A = experiment: as above; type: cell-based; details: Klebsiella aerogenes; human; K. aerogenes A; 18 hours at 37° C; read-out: MIC
Method: as §1

[2] = tested on: Pasteurella multocida 1633; experiment: as above; type: cell-based; details: human; Pasteurella multocida 1633; 18 hours at 37° C; read-out: MIC
Method: as §1

Strep. faecalis I = experiment: as above; type: cell-based; details: Enterococcus faecalis; human; Strep. faecalis I; 18 hours at 37° C; read-out: MIC
Method: as §1

[3] = tested on: Strep. pyogenes R80/421-A; experiment: as above; type: cell-based; details: Streptococcus pyogenes; human; Strep. pyogenes R80/421-A; 18 hours at 37° C; read-out: MIC
Method: as §1

Sarcina lutea 8340 = experiment: as above; type: cell-based; details: Micrococcus luteus; human; Sarcina lutea 8340; 18 hours at 37° C; read-out: MIC
Method: as §1

Staph. aureus W2827 = experiment: as above; type: cell-based; details: Staphylococcus aureus; human; Staph. aureus W2827; 18 hours at 37° C; read-out: MIC
Method: as §1

[4] = tested on: Haemophilus influenzae Wy21; experiment: as above; type: cell-based; details: human; Haemophilus influenzae Wy21; 18 hours at 37° C; read-out: MIC
Method: as §1

Staph. aureus Russell = experiment: as above; type: cell-based; details: Staphylococcus aureus; human; Staph. aureus Russell; 18 hours at 37° C; read-out: MIC
Method: as §1

E. coli ESS = experiment: as above; type: cell-based; details: Escherichia coli; human; E. coli ESS; 18 hours at 37° C; read-out: MIC
Method: as §1

P. mirabilis 889 = experiment: as above; type: cell-based; details: Proteus mirabilis; human; P. mirabilis 889; 18 hours at 37° C; read-out: MIC
Method: as §1

[5] = tested on: Ps. aeruginosa NCTC 10662; experiment: as above; type: cell-based; details: Pseudomonas aeruginosa, NCTC10662; human; Ps. aeruginosa NCTC 10662; 18 hours at 37° C; read-out: MIC
Method: as §1

M. hyopneumoniae TAM 6N = experiment: MIC against Mycoplasma in vitro (Friis broth with agarose); type: cell-based; details: Mesomycoplasma hyopneumoniae, TAM6N, 144 h; M. hyopneumoniae TAM 6N; 6 days at 37° C; read-out: MIC
Bord. bronchiseptica B09 = experiment: MIC against veterinary bacteria in vitro (Diagnostic Sensitivity Test Agar); details: Bordetella bronchiseptica, B09, 18 h
Method: as §2

[6] = tested on: M. hyopneumoniae ATCC 25095; experiment: MIC against Mycoplasma in vitro (Friis broth with agarose); type: cell-based; details: Mesomycoplasma hyopneumoniae, ATCC25095, 144 h; M. hyopneumoniae ATCC 25095; 6 days at 37° C; read-out: MIC
[7] = tested on: Erysipelothrix rhusiopathiae NCTC 8163; experiment: MIC against veterinary bacteria in vitro (Diagnostic Sensitivity Test Agar); details: NCTC8163, 18 h
Method: as §2

[8] = tested on: Strep. suis (group D) SPS11; experiment: as above; details: Streptococcus suis, 18 h
Method: as §2

M. hyopneumoniae Str. 11 = experiment: MIC against Mycoplasma in vitro (Friis broth with agarose); type: cell-based; details: Mesomycoplasma hyopneumoniae, 144 h; M. hyopneumoniae Str. 11; 6 days at 37° C; read-out: MIC
M. hyorhinis ATCC 25021 = experiment: as above; type: cell-based; details: Mesomycoplasma hyorhinis, ATCC25021, 144 h; M. hyorhinis ATCC 25021; 6 days at 37° C; read-out: MIC
[9] = tested on: Staph. aureus 152 (pen. sens); experiment: MIC against veterinary bacteria in vitro (Diagnostic Sensitivity Test Agar); details: Staphylococcus aureus, 18 h
Method: as §2

M. bovis NCTC 10131 = experiment: microbe, parasite or virus in culture; type: cell-based; details: NCTC10131, 144 h
[10] = tested on: M. bovigenitalium ATCC 14173; experiment: MIC against Mycoplasma in vitro (Friis broth with agarose); type: cell-based; details: 144 h; M. bovigenitalium ATCC 14173; 6 days at 37° C; read-out: MIC
[11] = tested on: Staph. aureus B4 (pen. resistant); experiment: MIC against veterinary bacteria in vitro (Diagnostic Sensitivity Test Agar); details: Staphylococcus aureus, 18 h
Method: as §2

Strep. dysgalactiae SPD1 = experiment: as above; details: Streptococcus dysgalactiae, SPD1, 18 h
Method: as §2

Past. haemolytica PA5 = experiment: as above; details: Mannheimia haemolytica, PA5, 18 h
Method: as §2

SMILES	MIC (M. hyopneumoniae MS 16) [µg/mL]	MIC (M. gallisepticum S6) [µg/mL]	MIC (Staph. aureus Oxford) [µg/mL]	MIC (Strep. spp. 64/848-C) [µg/mL]	MIC (Strep. agalactiae 2788-B) [µg/mL]	MIC (E. coli NCTC 10418) [µg/mL]	MIC (Bacillus subtilis 6633) [µg/mL]	MIC [1] [µg/mL]	MIC (K. aerogenes A) [µg/mL]	MIC [2] [µg/mL]	MIC (Strep. faecalis I) [µg/mL]	MIC [3] [µg/mL]	MIC (Staph. aureus W2827) [µg/mL]	MIC [4] [µg/mL]	MIC (Staph. aureus Russell) [µg/mL]	MIC (E. coli ESS) [µg/mL]	MIC (P. mirabilis 889) [µg/mL]	MIC [5] [µg/mL]	MIC (M. hyopneumoniae TAM 6N) [µg/mL]	MIC (Bord. bronchiseptica B09) [µg/mL]	further results
CC(=Cc1nnc(-c2cccnc2)o1)CC1OCC(CC2OC2C(C)C(C)O)C(O)C1O (stereo not shown) [Example 5, 2-(1-Normon-2-yl)-5-(3-pyridyl)-1,3,4-oxadiazole A]	1 (≈ 2.24 µM)	> 10	8 (≈ 18 µM)	32 (≈ 71.8 µM)	32 (≈ 71.8 µM)	> 128	4 (≈ 8.98 µM)	> 128	> 128	1 (≈ 2.24 µM)	> 128	8 (≈ 18 µM)	32 (≈ 71.8 µM)	0.5 (≈ 1.12 µM)	32 (≈ 71.8 µM)	4 (≈ 8.98 µM)	> 128	> 128	2.5 (≈ 5.61 µM)	20 (≈ 44.9 µM)	MIC (Strep. agalactiae SPA1): 20 µg/mL (≈ 44.9 µM); MIC (Sarcina lutea 8340): > 128 µg/mL; MIC [6]: 1 µg/mL (≈ 2.24 µM); MIC [7]: 80 µg/mL (≈ 180 µM); MIC [8]: > 80 µg/mL; MIC (M. hyopneumoniae Str. 11): 1 µg/mL (≈ 2.24 µM); MIC (M. hyorhinis ATCC 25021): 1 µg/mL (≈ 2.24 µM); MIC [9]: 10 µg/mL (≈ 22.4 µM); MIC (M. bovis NCTC 10131): 0.025 µg/mL (≈ 0.0561 µM); MIC [10]: 0.25 µg/mL (≈ 0.561 µM); MIC [11]: 10 µg/mL (≈ 22.4 µM); MIC (Strep. dysgalactiae SPD1): 10 µg/mL (≈ 22.4 µM)
CC(=Cc1nnnn1Cc1ccc([N+](=O)[O-])cc1)CC1OCC(CC2OC2C(C)C(C)O)C(O)C1O (stereo not shown) [Example 12, 1-(p-Nitrobenzyl)-5-(1-normon-2-yl)tetrazole A]	2.5 (≈ 4.96 µM)	> 10	100 (≈ 199 µM)	100 (≈ 199 µM)	50 (≈ 99.3 µM)	> 100	100 (≈ 199 µM)	≥ 100	> 100	5 (≈ 9.93 µM)	> 100	50 (≈ 99.3 µM)	100 (≈ 199 µM)	2.5 (≈ 4.96 µM)	≥ 100	100 (≈ 199 µM)	> 100	> 100	5 (≈ 9.93 µM)	> 80	MIC (Strep. agalactiae SPA1): > 80 µg/mL; MIC (Sarcina lutea 8340): ≥ 100 µg/mL; MIC [6]: 5 µg/mL (≈ 9.93 µM); MIC [7]: > 80 µg/mL; MIC [8]: > 80 µg/mL; MIC (M. hyopneumoniae Str. 11): 2.5 µg/mL (≈ 4.96 µM); MIC (M. hyorhinis ATCC 25021): 2.5 µg/mL (≈ 4.96 µM); MIC [9]: > 80 µg/mL; MIC (M. bovis NCTC 10131): 0.1 µg/mL (≈ 0.199 µM); MIC (Past. haemolytica PA5): > 80 µg/mL; MIC [11]: > 80 µg/mL; MIC (Strep. dysgalactiae SPD1): > 80 µg/mL
COC(=O)CCCCCCCCn1nnnc1C=C(C)CC1OCC(CC2OC2C(C)C(C)O)C(O)C1O (stereo not shown) [Example 13, 1-(8-Methoxycarbonyloctyl)-5-(1-normon-2-yl)-1H-tetrazole A]	> 10	> 10	> 64	> 64	> 64	> 64	> 64	> 64	> 64	64 (≈ 119 µM)	> 64	> 64	> 64	16 (≈ 29.7 µM)	> 64	> 64	> 64	> 64	> 10	80 (≈ 149 µM)	MIC (Strep. agalactiae SPA1): > 80 µg/mL; MIC [6]: > 10 µg/mL; MIC [7]: > 80 µg/mL; MIC [8]: > 80 µg/mL; MIC (M. hyopneumoniae Str. 11): > 10 µg/mL; MIC (M. hyorhinis ATCC 25021): > 10 µg/mL; MIC [9]: 20 µg/mL (≈ 37.1 µM); MIC (M. bovis NCTC 10131): 1 µg/mL (≈ 1.86 µM); MIC (Past. haemolytica PA5): > 80 µg/mL; MIC [10]: 5 µg/mL (≈ 9.28 µM); MIC [11]: > 80 µg/mL; MIC (Strep. dysgalactiae SPD1): > 80 µg/mL
CC(=Cc1nnnn1CCCCCCCCC(=O)O)CC1OCC(CC2OC2C(C)C(C)O)C(O)C1O (stereo not shown) [Example 14, Sodium 1-(8-carboxylatooctyl)-5-(1-normon-2-yl)-1H-tetrazole A]	> 10	> 10	> 128	> 128	> 128	> 128	> 128	> 128	> 128	64	> 128	> 128	> 128	128	> 128	> 128	> 128	> 128	> 10	> 80	MIC (Strep. agalactiae SPA1): > 80 µg/mL; MIC [6]: > 10 µg/mL; MIC [7]: > 80 µg/mL; MIC [8]: > 80 µg/mL; MIC (M. hyopneumoniae Str. 11): > 10 µg/mL; MIC (M. hyorhinis ATCC 25021): > 10 µg/mL; MIC [9]: > 80 µg/mL; MIC (M. bovis NCTC 10131): 5 µg/mL; MIC (Past. haemolytica PA5): > 80 µg/mL; MIC [10]: 10 µg/mL; MIC [11]: > 80 µg/mL; MIC (Strep. dysgalactiae SPD1): > 80 µg/mL
CC(=Cc1nc(-c2ccccc2)no1)CC1OCC(CC2OC2C(C)C(C)O)C(O)C1O (stereo not shown) [Example 15, 5-(1-Normon-2-yl)-3-phenyl-1,2,4-oxadiazole A]	5 (≈ 11.2 µM)	> 10	16 (≈ 36 µM)	64 (≈ 144 µM)	64 (≈ 144 µM)	> 128	32 (≈ 72 µM)	> 128	> 128	64 (≈ 144 µM)	> 128	32 (≈ 72 µM)	32 (≈ 72 µM)	4 (≈ 9 µM)	32 (≈ 72 µM)	8 (≈ 18 µM)	> 128	> 128	10 (≈ 22.5 µM)	80 (≈ 180 µM)	MIC (Sarcina lutea 8340): > 128 µg/mL; MIC [6]: 5 µg/mL (≈ 11.2 µM); MIC [7]: 40 µg/mL (≈ 90 µM); MIC [8]: > 80 µg/mL; MIC (M. hyopneumoniae Str. 11): 5 µg/mL (≈ 11.2 µM); MIC (M. hyorhinis ATCC 25021): 2.5 µg/mL (≈ 5.62 µM); MIC [9]: 5 µg/mL (≈ 11.2 µM); MIC (M. bovis NCTC 10131): 0.1 µg/mL (≈ 0.225 µM); MIC (Past. haemolytica PA5): > 80 µg/mL; MIC [10]: 0.5 µg/mL (≈ 1.12 µM); MIC [11]: 5 µg/mL (≈ 11.2 µM); MIC (Strep. dysgalactiae SPD1): 10 µg/mL (≈ 22.5 µM)
